Test results from patent US12414958B2, “Medicament and use thereof for treating bacterial infections involving biofilm” (Debiopharm International S.A., priority 2019, dated 2025).
Where “and” joins values, the source holds several entries; their conditions need not be identical. Identical values can stand only once.

Assays:
ATCC 43300 MRSA strain = test: Induction of resistance studies, ex vivo bacterial exposure to 4×MIC (Example 1); type: cell-based, Staphylococcus aureus; conditions: ex vivo exposure to 4×MIC; single and combination therapy; 24h or 72h biofilm
Method: Two experimental settings were used in this study to evaluate the treatment efficacies against early (24h) and/or mature (72h) MRSA catheter formed biofilms. Briefly, mice were anaesthetised by an IP injection of about 120 μl a mix of ketamine (50 mg/kg) and xylazine (10 mg/kg) (4 mL ketamine+2 mL xylazine+10 mL saline). Flank on the right side was shaved and then disinfected by 3 consecutive applications of betadine. A cutaneous and then subcutaneous (SC) incisions of 0.2 cm were made under sterile conditions and a 1 cm segment of polyurethane catheter (Ref. No. ES-04730 Arrow international) cut into 2 longitudinal fragments was inserted SC (into the incision and then pushed further under the skin, about 2 cm away from the incision). The inoculation was done simultaneously by placing 50 μl of the bacterial culture onto the catheter (10^6 CFU of ATCC 43300 MRSA strain). The incision was stitched up and disinfected. The day of the infection was referred to as Day0 (D0). To ensure that the study was conducted in sterile conditions from the start to the end of the experiment, non-infected mice (sentinel group) were included. […] In both 24 h and 72h biofilm settings, two groups of infected non-treated animals (Vehicle controls) were evaluated for bacterial counts: at baseline (24h or D1 [for 24-h biofilm] and 72h or D3 [for 72-h biofilm] post infection, i.e. time points corresponding to treatments initiations) and at the termination of treatment duration (D6 [for 24-h biofilm] and D8 [for 72-h biofilm] post infection). Post treatment CFUs were counted on D6 or D8 and results were expressed as Log10 CFU/g of catheter (Mean±SEM). The limit of detection was determined as being 1 Log10 CFU/g of catheter. Changes of CFU/g of catheter (Δ Log10) from the baseline (D1 or D3 for 24-h and 72-h biofilm, respectively) and cure rates (corresponding to the percentage of mice without catheter-associated bacteria within a given treatment group) were also calculated. In vivo induction of antibiotic-resistant bacteria was analysed for all tested antibiotics.

[1] = test system: S. aureus ATCC 43300 (MRSA); test: Mouse tissue cage model of MRSA infection, 11-day treatment at lower dosage (Example 3); type: in vivo, Staphylococcus aureus; conditions: for Cure rate (%) / adherent bacteria reduction from baseline (mean±SD): 24-h biofilm; for Cure rate (%) / adherent bacteria reduction from baseline (mean±SD) / day on which bactericidal effect (mean reduction of bacterial load by ≥3 Log10) on planktonic bacteria was exerted / Planktonic day 3 Δlog from baseline (individual animal) / Planktonic day 6 Δlog from baseline (individual animal) / Planktonic day 9 Δlog from baseline (individual animal) / Planktonic day 11 Δlog from baseline (individual animal): 11-day treatment; for Cure rate (%): cages without growth / total cages; for adherent bacteria reduction from baseline (mean±SD): n=6, given as positive reduction; for Adherent Mean / Adherent Δlog from baseline (individual animal): medium after sonication of explanted tissue cages, day 14 vs day 1; for Adherent Mean: group mean; for day on which bactericidal effect (mean reduction of bacterial load by ≥3 Log10) on planktonic bacteria was exerted: planktonic bacteria in tissue cage fluid; for Planktonic day 3 Δlog from baseline (individual animal) / Planktonic day 6 Δlog from baseline (individual animal) / Planktonic day 9 Δlog from baseline (individual animal) / Planktonic day 11 Δlog from baseline (individual animal) / Planktonic day 14 Δlog from baseline (individual animal) / Planktonic day 3 Mean / Planktonic day 6 Mean / Planktonic day 9 Mean / Planktonic day 11 Mean / Planktonic day 14 Mean: tissue cage fluid; for Planktonic day 3 Δlog from baseline (individual animal) / Planktonic day 6 Δlog from baseline (individual animal) / Planktonic day 9 Δlog from baseline (individual animal) / Planktonic day 11 Δlog from baseline (individual animal): baseline day 1; for Planktonic day 14 Δlog from baseline (individual animal): 3 days after end of 11-day treatment; for Planktonic day 3 Mean / Planktonic day 6 Mean / Planktonic day 9 Mean / Planktonic day 11 Mean / Planktonic day 14 Mean: group mean Δlog from baseline
Source text: The purpose of this study was to evaluate the efficacy of Debio 1450 BES alone and in combination with Daptomycin (DAP) in the mouse tissue cage model of implant-associated infections caused by methicillin resistant Staphylococcus (S.) aureus (MRSA) at lower dosage and longer treatment duration than used in the previous study (Example 2). The efficacy against 24-h biofilm of S. aureus ATCC 43300 (MRSA) was investigated. Employing a small initial inoculum (ca. 300 CFU/cage) together with a 24-h biofilm allowed to simulate clinical settings of an acute implant infection and/or surgical debridement.
The Debio 1450 BES dose of 20 mg/kg BID reflects the most current HED of 240 mg BID obtained in the recent PK studies (50 mg/kg BID was used in Example 2 based on the previous PK analysis). […] The treatment duration of 11 days was selected to compensate lowering of the dose of Debio 1450 BES (5.5-day treatment was used in Example 2) and is in line with the prolonged antibiotic therapy applied in patients with prosthetic joint infections.
The same mouse tissue cage model was employed as described in Example 2 above. The animals received antibiotic treatment i.p. on day 1 post-infection through day 11. One group received only 5% glucose and served as infected, untreated control group (vehicle). […] Debio 1450 BES and vehicle were administered bid, and DAP was administered qdam. In the present study we investigated the efficacy of lower dosage in a prolonged treatment duration.
Five to 6 days before infection, TCF was aspirated to ascertain the sterility of implanted cages by TCF plating on blood agar plates. TCF was aspirated and plated on day 1 (before treatment) to confirm the establishment of infection. In addition, the number of bacteria in TCF was determined on day 3 (before the first injection that day), on day 6, day 9 and on day 11 (before last treatment), and on day 14 (before explantation of the cages) to evaluate the treatment efficacy against planktonic bacteria. The mouse number and bacterial count for the given cage is reported to analyse the time course of antibacterial activity of the tested drugs. The efficacy against biofilm-embedded bacteria is assessed qualitatively and quantitatively following aseptic explantation of the tissue cages 3 days after the completion of treatment. The 3 days of resting period helped to avoid the antibiotic carryover effect. Upon explantation, cages were washed twice with phosphate buffered saline (PBS) (Lot #5060914) and immediately transferred into 5 mL 0.9% NaCl (Lot #L171095). Following 30 s vortexing, sonication (3 min at 130 W), and an additional 30 s vortexing step the numbers of bacteria dispersed from biofilm was determined by plating. The sonicated cages were washed once with PBS, transferred into 5 mL TSB (Lot #0286463), and incubated for 48 h at 37° C., with an additional vortexing step after 24 h of incubation. After the incubation, tubes were vortexed again and bacterial regrowth was assessed visually. In addition, 100 μL of each culture was plated on blood agar plates to ascertain the regrowth. A positive culture is defined as a treatment failure. The efficacy of treatment against adherent bacteria is expressed as the cure rate (in percent), defined as the number of cages without growth divided by the total number of cages in the individual treatment group. In addition, single colonies from the re-growth plates were used to achieve the 0.5 McFarland. 100 μl of each 0.5 McFarland culture was plated on MHA plates containing the antibiotics corresponding to the treatment used (note: bacteria from mice treated with Debio 1450 will be plated on plates containing Debio 1452).

Row | SMILES | Cure rate (%) [1] | adherent bacteria reduction from baseline (mean±SD) [1] | Adherent Mean [1] | day on which bactericidal effect (mean reduction of bacterial load by ≥3 Log10) on planktonic bacteria was exerted [1] | Planktonic day 3 Mean [1] | Planktonic day 6 Mean [1] | Planktonic day 9 Mean [1] | Planktonic day 11 Mean [1] | Planktonic day 14 Mean [1] | further results
1 | CCCCCCCCCC(=O)N[C@@H](Cc1c[nH]c2ccccc12)C(=O)N[C@H](CC(N)=O)C(=O)N[C@@H](CC(=O)O)C(=O)N[C@@H]1C(=O)NCC(=O)N[C@@H](CCCN)C(=O)N[C@@H](CC(=O)O)C(=O)N[C@H](C)C(=O)N[C@@H](CC(=O)O)C(=O)NCC(=O)N[C@H](CO)C(=O)N[C@@H]([C@H](C)CC(=O)O)C(=O)N[C@@H](CC(=O)c2ccccc2N)C(=O)O[C@@H]1C [Daptomycin] | 50% | 3.15±2.74 log 10 CFU/mL | −3 log 10 CFU/mL | 6 day | −3 Log10 | −3.33 Log10 | −3.9 Log10 | −3.73 Log10 | −2 Log10 | emergence of resistant mutants (ATCC 43300 MRSA strain): no emergence of resistant mutants; Adherent Δlog from baseline (individual animal) ([1]; listed as DAP): −4.2 log 10 CFU/mL and −0.3 log 10 CFU/mL and 0.24 log 10 CFU/mL and −6 log 10 CFU/mL (2×) and −2.5 log 10 CFU/mL; Planktonic day 3 Δlog from baseline (individual animal) ([1]; listed as DAP): −2.56 Log10 and −2.18 Log10 and −3.12 Log10 and −2.06 Log10 and −3.41 Log10 and −3.62 Log10; Planktonic day 6 Δlog from baseline (individual animal) ([1]; listed as DAP): −2.7 Log10 and −3.5 Log10 (2×) and −3.4 Log10 (2×) and −3.6 Log10; Planktonic day 9 Δlog from baseline (individual animal) ([1]; listed as DAP): −4.6 Log10 and −5.5 Log10 and −2.7 Log10 and −3.4 Log10 and −3.6 Log10 (2×); Planktonic day 11 Δlog from baseline (individual animal) ([1]; listed as DAP): −4.6 Log10 and −2.9 Log10 and −2.70 Log10 and −3.4 Log10 and −5.2 Log10 and −3.6 Log10; Planktonic day 14 Δlog from baseline (individual animal) ([1]; listed as DAP): −4.6 Log10 and −1.1 Log10 and −1.5 Log10 and −3.4 Log10 and −0.6 Log10 and −3.6 Log10
2 | Cc1c(CN(C)C(=O)/C=C/c2cnc3c(c2)CCC(=O)N3COP(=O)(O)O)oc2ccccc12 [Debio 1450, {6-[(1E)-3-{methyl [(3-methyl-1-benzofuran-2-yl)methyl]amino}-3-oxoprop-1-en-1-yl]-2-oxo-3,4-dihydro-1,8-naphthyridin-1 (2H)-yl} methyl dihydrogen phosphate] | 83% | 4.35±2.5 log 10 CFU/mL | −4 log 10 CFU/mL | 6 day | −3 Log10 | −3.50 Log10 | −4.10 Log10 | −4.10 Log10 | −3 Log10 | Adherent Δlog from baseline (individual animal) [1]: −4.2 log 10 CFU/mL (2×) and 0.43 log 10 CFU/mL and −6 log 10 CFU/mL (3×); Planktonic day 3 Δlog from baseline (individual animal) [1]: −1.46 Log10 and −3.68 Log10 and −2.22 Log10 and −3.33 Log10 and −3.03 Log10 and −2.37 Log10; Planktonic day 6 Δlog from baseline (individual animal) [1]: −3.1 Log10 and −3.7 Log10 (2×) and −4.2 Log10 and −3.3 Log10 and −3 Log10; Planktonic day 9 Δlog from baseline (individual animal) [1]: −3.1 Log10 and −3.7 Log10 and −6.2 Log10 and −3.3 Log10 and −3 Log10 and −5.3 Log10; Planktonic day 11 Δlog from baseline (individual animal) [1]: −3.1 Log10 and −3.7 Log10 and −6.2 Log10 and −3.3 Log10 and −3 Log10 and −5.3 Log10; Planktonic day 14 Δlog from baseline (individual animal) [1]: −3.1 Log10 and −3.7 Log10 and −0.2 Log10 and −3.3 Log10 and −3 Log10 and −5.3 Log10
